45 compounds from ChEMBL document CHEMBL1828496 (Eur J Med Chem, 2011) can be followed below.

The target in series [1] is T1, Amine oxidase [flavin-containing] B (Homo sapiens, UniProt P27338).
T1 sequence (P27338 whole entry): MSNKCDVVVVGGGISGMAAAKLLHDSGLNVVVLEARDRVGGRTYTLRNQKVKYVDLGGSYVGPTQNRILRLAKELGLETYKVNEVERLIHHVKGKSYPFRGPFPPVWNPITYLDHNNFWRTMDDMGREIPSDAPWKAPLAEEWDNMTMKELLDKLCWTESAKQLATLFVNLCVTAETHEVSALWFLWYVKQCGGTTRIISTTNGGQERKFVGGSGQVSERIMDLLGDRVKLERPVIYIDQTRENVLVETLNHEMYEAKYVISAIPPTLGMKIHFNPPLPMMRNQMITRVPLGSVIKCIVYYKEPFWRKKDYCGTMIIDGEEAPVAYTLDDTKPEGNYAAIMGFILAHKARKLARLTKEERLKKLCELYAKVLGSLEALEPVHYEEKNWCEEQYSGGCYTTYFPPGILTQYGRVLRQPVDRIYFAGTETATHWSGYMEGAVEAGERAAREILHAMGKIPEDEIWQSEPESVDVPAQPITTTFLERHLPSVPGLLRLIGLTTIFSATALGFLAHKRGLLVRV
In words: biochemical. The class given is cell-based, BTI-TN-5B1-4.
Description: Inhibition of human recombinant MAO-B expressed in baculovirus infected BTI-TN-5B1-4 cells assessed as production of hydrogen peroxide from p-tyramine after 15 mins by microplate fluorescence assay

The species entered for series [2] is Homo sapiens. In words: Selectivity ratio of IC50 for human recombinant MAO-A to IC50 for human recombinant MAO-B.
In series [3] the target is T2, Amine oxidase [flavin-containing] A (Homo sapiens, UniProt P21397).
T2 sequence (P21397 whole entry): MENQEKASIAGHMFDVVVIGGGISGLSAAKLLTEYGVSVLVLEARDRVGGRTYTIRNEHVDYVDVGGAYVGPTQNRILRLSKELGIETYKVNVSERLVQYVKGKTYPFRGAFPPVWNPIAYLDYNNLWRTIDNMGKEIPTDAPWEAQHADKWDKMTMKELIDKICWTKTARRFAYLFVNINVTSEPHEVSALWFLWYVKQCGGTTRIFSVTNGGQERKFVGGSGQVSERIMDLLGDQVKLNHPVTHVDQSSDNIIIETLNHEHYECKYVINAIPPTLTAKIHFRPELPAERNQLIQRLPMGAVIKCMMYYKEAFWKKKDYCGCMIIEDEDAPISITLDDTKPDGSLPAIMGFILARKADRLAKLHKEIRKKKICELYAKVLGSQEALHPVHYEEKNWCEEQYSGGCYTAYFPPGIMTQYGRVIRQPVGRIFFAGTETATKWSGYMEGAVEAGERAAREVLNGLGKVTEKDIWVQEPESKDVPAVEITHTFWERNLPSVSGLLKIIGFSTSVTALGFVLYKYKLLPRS
Briefly: Inhibition of human recombinant MAO-A expressed in baculovirus infected BTI-TN-5B1-4 cells assessed as production of hydrogen peroxide from p-tyramine at 100 uM after 15 mins by microplate fluorescence assay. The note with it: for inhibition (INH): human, bti-tn-5b1-4, 0.25 h, 100 µM; for inhibition at 100 µM: BTI-TN-5B1-4, human, 0.25 h.

Series [4] has as its target T2, Amine oxidase [flavin-containing] A. Briefly: Inhibition of human recombinant MAO-A expressed in baculovirus infected BTI-TN-5B1-4 cells assessed as production of hydrogen peroxide from p-tyramine after 15 mins by microplate fluorescence assay.
For series [5], the target named is T1, Amine oxidase [flavin-containing] B. In words: Inhibition of human recombinant MAO-B expressed in baculovirus infected BTI-TN-5B1-4 cells assessed as production of hydrogen peroxide from p-tyramine at 100 uM after 15 mins by microplate fluorescence assay. As to conditions: for inhibition (INH): human, bti-tn-5b1-4, 0.25 h, 100 µM; for inhibition at 100 µM: BTI-TN-5B1-4, human, 0.25 h; call rule not given here.

Broadly, the IC50 is the midpoint of a concentration-inhibition curve. For the compound `CCN(CC)c1ccc2cc(C(=O)c3ccccc3)c(=O)oc2c1`, the concentration for half-maximal inhibition (IC50) in series [1] was found to be 23.8 µM. In addition, the Ratio IC50 in series [2] is above 4.2. For the same compound, the “inhibition (INH)” value in series [3] was “Not Active”.
As for `Cc1ccc(NNC(=O)c2cc3ccccc3oc2=O)cc1`, the IC50 in series [4] was determined as 58.4 µM. Also, the Ratio IC50 in series [2] is below 0.58. In series [5], the “inhibition (INH)” value is listed as “Not Active”.
Regarding `O=C(O)c1cc2cc(I)cc(I)c2oc1=O`, the IC50 in series [1] came out at 17.8 µM. In addition, the Ratio IC50 in series [2] is above 5.6. The “inhibition (INH)” value in series [3] is “Not Active”.
With `CCOC(=O)c1cc2cc(O)ccc2oc1=O`, the values for the IC50 in series [4] and in series [1] were 49.1 µM and 10.1 µM, respectively. Also, in series [2], the Ratio IC50 amounted to 4.9.
In turn, `CCN(CC)c1ccc2cc(C(C)=O)c(=O)oc2c1` yielded an IC50 in series [1] of 18.1 µM. Moreover, the Ratio IC50 in series [2] was above 5.5. Also, the “inhibition (INH)” value in series [3] is reported as “Not Active”.
Regarding `CCOC(=O)c1cc2ccc(N(CC)CC)cc2oc1=O`, in series [1], the IC50 came out at 45.5 µM. In addition, in series [2], the Ratio IC50 was above 2.2. For the same compound, in series [3], the “inhibition (INH)” value is on record as “Not Active”.
In general, inhibition refers to how much of the control response was suppressed. For the compound `O=C(O)c1cc2cc(O)ccc2oc1=O`, in series [4], the IC50 is 40.2 µM. For the same compound, the Ratio IC50 in series [2] is below 0.4. Besides, in series [5], the inhibition at 100 µM is 40%.
Regarding `O=C(c1ccccc1)c1cc2ccccc2oc1=O`, the “inhibition (INH)” value in series [3] and in series [5] was “Not Active” each time.
Take `O=C(O)c1cc2ccc(OCc3ccc(Cl)c(Cl)c3)cc2oc1=O`: 0.41 µM corresponded to half-maximal inhibition in series [1] (IC50). Besides, in series [2], the Ratio IC50 was above 244. In addition, the “inhibition (INH)” value in series [3] is “Not Active”.
For the compound `CC(C)(C)c1ccc(COc2ccc3cc(C(=O)O)c(=O)oc3c2)cc1`, the “inhibition (INH)” value in series [3] and in series [5] was “Not Active” each time.
In series [1], `CC(=O)c1cc2cc(Cl)ccc2oc1=O` returned an IC50 of 17.7 µM. The Ratio IC50 in series [2] was above 5.6. Also, the “inhibition (INH)” value in series [3] was “Not Active”.
Regarding `O=C(c1ccccc1)c1cc2cc(Cl)ccc2oc1=O`, the “inhibition (INH)” value in series [3] and in series [5] was “Not Active” throughout.
In turn, `CCOC(=O)c1cc2ccc(OC)cc2oc1=O` yielded an IC50 in series [1] of 23.5 µM. Besides, the Ratio IC50 in series [2] is above 4.3. Moreover, in series [3], the inhibition at 100 µM was 40%.
For `O=C(O)c1cc2cc(Br)cc(Br)c2oc1=O`, the “inhibition (INH)” value in series [3] and in series [5] was “Not Active” throughout.
`O=C(O)c1cc2ccc(OC3CCCCCC3)cc2oc1=O` displayed an IC50 in series [1] of 8.62 µM. Moreover, the Ratio IC50 in series [2] was above 11.6. Moreover, the “inhibition (INH)” value in series [3] is reported as “Not Active”.
`O=C(NNc1ccc([N+](=O)[O-])cc1[N+](=O)[O-])c1cc2ccccc2oc1=O`: the values for the IC50 in series [4] and in series [1] were 60.5 µM and 56.1 µM, respectively. The Ratio IC50 in series [2] turned out to be 1.08.
For `O=C(c1ccccc1)c1cc2cc(I)cc(I)c2oc1=O`, the “inhibition (INH)” value in series [3] and in series [5] was “Not Active” throughout.
In turn, `COc1ccc2cc(C(C)=O)c(=O)oc2c1` registered a half-maximal inhibitory concentration (IC50) in series [1] of 15.4 µM. Moreover, the Ratio IC50 in series [2] was above 6.5. Also, the inhibition at 100 µM in series [3] was 40%.
On the same counts, the results for `CC(=O)c1cc2c(ccc3ccccc32)oc1=O` are 2.01 µM, above 50 and 40%.
As to `CC(=O)c1cc2cccc(O)c2oc1=O`, the IC50 in series [4] was 39.4 µM; in series [1], 42.1 µM. In series [2], the Ratio IC50 worked out at 0.93.
For the compound `O=C(c1ccccc1)c1cc2cc(Br)ccc2oc1=O`, the “inhibition (INH)” value in series [3] and in series [5] was “Not Active” in each case.
For the compound `COc1ccc2cc(C(=O)c3ccccc3)c(=O)oc2c1`, the “inhibition (INH)” value in series [3] is “Not Active”. In addition, in series [5], the inhibition at 100 µM came out at 40%.
Take `CC(=O)c1cc2cc(I)cc(I)c2oc1=O`: the “inhibition (INH)” value in series [3] and in series [5] was “Not Active” each time.
Take `O=C(NNc1ccc(Cl)cc1)c1cc2ccccc2oc1=O`: the IC50 in series [4] is 48 µM; in series [1], 1.19 µM. Further, the Ratio IC50 in series [2] is 40.4.
Turning to `O=C(c1ccccc1)c1cc2ccc(O)cc2oc1=O`, the “inhibition (INH)” value in series [3] and in series [5] was “Not Active” in each case.
With `CCOC(=O)c1cc2cc(Br)cc(Br)c2oc1=O`, the “inhibition (INH)” value in series [3] is recorded as “Not Active”. Also, in series [5], the inhibition at 100 µM is 40%.
With `O=C(c1ccccc1)c1cc2c(ccc3ccccc32)oc1=O`, the “inhibition (INH)” value in series [3] and in series [5] was “Not Active” in each case.
With `CC(=O)c1cc2ccc(O)cc2oc1=O`, the “inhibition (INH)” value in series [3] and in series [5] was “Not Active” each time.
On to `Cc1ccc2oc(=O)c(C(=O)c3ccccc3)cc2c1`, for which the “inhibition (INH)” value in series [3] is “Not Active”. Also, the inhibition at 100 µM in series [5] came to 40%.
Regarding `O=C(c1ccccc1)c1cc2cc(O)ccc2oc1=O`, the results for the half-inhibitory concentration (IC50) in series [4] and in series [1] were 51.7 µM and 18 µM, respectively. Also, the Ratio IC50 in series [2] amounted to 2.9.
On to `COc1ccc2cc(C(=O)O)c(=O)oc2c1`, for which the “inhibition (INH)” value in series [3] is “Not Active”. Also, the inhibition at 100 µM in series [5] was determined as 40%.
`CCOC(=O)c1cc2cc(Cl)cc(Br)c2oc1=O` yielded an IC50 in series [1] of 17.5 µM. Besides, the Ratio IC50 in series [2] is above 5.7. The “inhibition (INH)” value in series [3] is “Not Active”.
`CC(=O)c1cc2cc(Cl)cc(Br)c2oc1=O`: the half-inhibitory concentration (IC50) turned out to be 55.2 µM in series [4] and 0.14 µM in series [1]. Further, in series [2], the Ratio IC50 stood at 394.
The matching figures for `O=C(c1ccccc1)c1cc2cccc(O)c2oc1=O`: 40.5 µM, 27.1 µM and 1.5.
For `CC(=O)c1cc2cc(O)ccc2oc1=O`, the IC50 in series [1] was 64.2 µM. The Ratio IC50 in series [2] is above 1.6. The inhibition at 100 µM in series [3] is 40%.
`CC(=O)c1cc2ccccc2oc1=O` [3-ACETYLCOUMARIN] returned an IC50 in series [1] of 14.5 µM. Further, in series [2], the Ratio IC50 is above 6.9. Also, in series [3], the “inhibition (INH)” value is listed as “Not Active”.
Turning to `O=C(c1ccccc1)c1cc2cc(Br)cc(Br)c2oc1=O`, the “inhibition (INH)” value in series [3] is listed as “Not Active”. The inhibition at 100 µM in series [5] turned out to be 40%.
As to `CCOC(=O)c1cc2ccc(O)cc2oc1=O`, the “inhibition (INH)” value in series [3] and in series [5] was “Not Active” throughout.
Turning to `COc1ccc2oc(=O)c(C(=O)O)cc2c1`, the “inhibition (INH)” value in series [3] and in series [5] was “Not Active” in each case.
On to `CC(=O)c1cc2cc(C)ccc2oc1=O`, for which the “inhibition (INH)” value in series [3] is on record as “Not Active”. In series [5], the inhibition at 100 µM was determined as 40%.
The matching figures for `O=C(c1ccccc1)c1cc2cc(Cl)cc(Br)c2oc1=O`: “Not Active” and 40%.
`CCOC(=O)c1cc2cccc(O)c2oc1=O`: the IC50 in series [4] worked out at 40.5 µM; in series [1], 14.8 µM. Further, the Ratio IC50 in series [2] was found to be 2.7.
`O=C(O)c1cc2ccc(OCc3cccc(Cl)c3)cc2oc1=O` came in with a half-maximal inhibitory concentration (IC50) in series [1] of 1.8 µM. For the same compound, in series [2], the Ratio IC50 is above 55. The “inhibition (INH)” value in series [3] is “Not Active”.
With `O=C(O)c1cc2cc(Cl)cc(Br)c2oc1=O`, the “inhibition (INH)” value in series [3] and in series [5] was “Not Active” in each case.
Compound `CC(=O)c1cc2cc(Br)cc(Br)c2oc1=O` gave an IC50 in series [1] of 0.2 µM. Further, in series [2], the Ratio IC50 is above 500. In addition, in series [3], the “inhibition (INH)” value was “Not Active”.
